Assay results from patent publication US9440957B2, “Compounds and compositions for modulating EGFR Activity” (Novartis AG, priority 2012, dated 2016).
Like-named read-outs stand apart in the source and are kept apart here.

How the values were obtained:
EGFR(L858R/T790M) = molecular target: T1, EGFR(L858R/T790M) (Homo sapiens, UniProt P00533, L858R/T790M); assay: EGFR biochemical assay (HTRF), IC50 determinations
T1 construct: purchased from Carna (GST-a.a. 669-1210)
Outline: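 HTRF kinase reaction with biotin-TK peptide at room temperature, quenched with EDTA at 60 min and detected with PT66K/SAXL after 1 h. Without preincubation, enzyme starts the reaction with compound, ATP and peptide present. With preincubation, compound, enzyme and peptide sit at room temperature for a set time before ATP is added.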

H1975 (EGFR L858/T790M) = H1975 (EGFR L858/T790M) (Homo sapiens, UniProt P00533, L858R/T790M); assay: EGFR target modulation in H1975 cell line (phospho-EGFR Y1173 ELISA); type: cell-based
Chain of H1975 (EGFR L858/T790M) (P00533 25-1210 T790M/L858R): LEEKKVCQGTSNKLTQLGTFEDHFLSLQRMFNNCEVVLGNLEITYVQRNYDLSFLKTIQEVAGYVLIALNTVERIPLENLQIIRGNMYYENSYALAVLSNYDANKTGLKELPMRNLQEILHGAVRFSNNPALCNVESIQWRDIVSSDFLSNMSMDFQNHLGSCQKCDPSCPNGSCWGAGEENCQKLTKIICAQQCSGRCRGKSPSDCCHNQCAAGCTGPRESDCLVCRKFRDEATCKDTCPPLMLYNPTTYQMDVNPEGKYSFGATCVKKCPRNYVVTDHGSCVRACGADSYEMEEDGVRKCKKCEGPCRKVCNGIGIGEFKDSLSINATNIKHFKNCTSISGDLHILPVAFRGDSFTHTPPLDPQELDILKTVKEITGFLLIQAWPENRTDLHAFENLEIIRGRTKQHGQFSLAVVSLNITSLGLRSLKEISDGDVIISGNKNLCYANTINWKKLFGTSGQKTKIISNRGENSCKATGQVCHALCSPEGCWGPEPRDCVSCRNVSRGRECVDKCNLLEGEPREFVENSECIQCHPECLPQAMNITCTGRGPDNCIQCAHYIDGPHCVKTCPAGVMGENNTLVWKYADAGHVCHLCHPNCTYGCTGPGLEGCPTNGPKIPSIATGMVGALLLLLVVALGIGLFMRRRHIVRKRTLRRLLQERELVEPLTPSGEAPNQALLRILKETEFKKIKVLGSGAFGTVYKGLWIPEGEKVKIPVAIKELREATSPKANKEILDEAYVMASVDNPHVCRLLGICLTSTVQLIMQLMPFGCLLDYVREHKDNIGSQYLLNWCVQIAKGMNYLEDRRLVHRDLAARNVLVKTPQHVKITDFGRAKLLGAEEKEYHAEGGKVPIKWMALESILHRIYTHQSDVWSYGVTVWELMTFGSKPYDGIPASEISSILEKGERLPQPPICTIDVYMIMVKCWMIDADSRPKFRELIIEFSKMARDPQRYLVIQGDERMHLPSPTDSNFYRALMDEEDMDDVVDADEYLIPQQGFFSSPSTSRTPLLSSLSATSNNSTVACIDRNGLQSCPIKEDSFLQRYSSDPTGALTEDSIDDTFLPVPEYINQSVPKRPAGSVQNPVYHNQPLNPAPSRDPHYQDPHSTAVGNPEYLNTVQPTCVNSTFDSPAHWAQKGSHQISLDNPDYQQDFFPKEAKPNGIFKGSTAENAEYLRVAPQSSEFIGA
Outline: (§1)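 3 h compound exposure of cells in 10% FBS/RPMI, 37 °C; lysis on ice 20 min; lysate captured overnight at 4 °C on anti-EGFR-coated plates; anti-rabbit-HRP, chemiluminescence.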

H3255 (EGFR L858R) = H3255 (EGFR L858R) (Homo sapiens, UniProt P00533, L858R); assay: EGFR target modulation in H3255 cell line (phospho-EGFR Y1173 ELISA); type: cell-based
Chain of H3255 (EGFR L858R) (P00533 25-1210 L858R): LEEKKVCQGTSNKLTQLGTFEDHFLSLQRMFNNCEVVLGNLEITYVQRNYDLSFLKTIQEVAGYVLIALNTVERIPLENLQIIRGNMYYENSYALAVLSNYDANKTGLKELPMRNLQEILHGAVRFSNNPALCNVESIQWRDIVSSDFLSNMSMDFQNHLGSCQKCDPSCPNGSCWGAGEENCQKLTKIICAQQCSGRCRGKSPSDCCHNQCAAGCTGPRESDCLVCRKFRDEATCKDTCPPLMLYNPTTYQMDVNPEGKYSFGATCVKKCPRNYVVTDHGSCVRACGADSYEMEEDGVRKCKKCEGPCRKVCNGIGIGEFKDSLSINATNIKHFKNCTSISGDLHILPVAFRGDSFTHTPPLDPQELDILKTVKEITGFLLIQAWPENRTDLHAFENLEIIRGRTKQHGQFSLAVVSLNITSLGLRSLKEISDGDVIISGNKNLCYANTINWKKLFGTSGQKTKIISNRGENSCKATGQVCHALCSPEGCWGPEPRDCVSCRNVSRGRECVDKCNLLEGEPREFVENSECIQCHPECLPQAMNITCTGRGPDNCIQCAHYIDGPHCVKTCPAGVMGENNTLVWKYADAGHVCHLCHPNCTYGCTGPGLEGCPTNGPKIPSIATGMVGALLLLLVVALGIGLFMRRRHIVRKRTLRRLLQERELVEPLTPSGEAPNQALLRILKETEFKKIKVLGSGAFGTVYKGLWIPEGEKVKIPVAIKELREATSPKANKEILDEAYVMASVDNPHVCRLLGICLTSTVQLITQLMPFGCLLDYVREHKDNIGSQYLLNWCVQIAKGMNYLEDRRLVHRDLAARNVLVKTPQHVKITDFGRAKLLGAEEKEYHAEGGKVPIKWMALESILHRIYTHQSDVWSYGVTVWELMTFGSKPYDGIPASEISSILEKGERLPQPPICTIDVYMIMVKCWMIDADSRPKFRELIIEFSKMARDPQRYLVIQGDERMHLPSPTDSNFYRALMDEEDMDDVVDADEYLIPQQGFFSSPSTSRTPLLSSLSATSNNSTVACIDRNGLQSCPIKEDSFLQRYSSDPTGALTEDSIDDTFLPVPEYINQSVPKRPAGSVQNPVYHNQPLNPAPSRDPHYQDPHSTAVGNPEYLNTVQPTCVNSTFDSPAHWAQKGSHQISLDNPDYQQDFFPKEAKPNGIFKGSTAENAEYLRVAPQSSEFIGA
Outline: as §1

HCC827 (Del E746-A750) = HCC827 (Del E746-A750) (Homo sapiens, UniProt P00533, DEL746-750); assay: EGFR target modulation in HCC827 cell line (phospho-EGFR Y1173 ELISA); type: cell-based
Chain of HCC827 (Del E746-A750) (P00533 with tags, fused parts or gaps DEL746-750): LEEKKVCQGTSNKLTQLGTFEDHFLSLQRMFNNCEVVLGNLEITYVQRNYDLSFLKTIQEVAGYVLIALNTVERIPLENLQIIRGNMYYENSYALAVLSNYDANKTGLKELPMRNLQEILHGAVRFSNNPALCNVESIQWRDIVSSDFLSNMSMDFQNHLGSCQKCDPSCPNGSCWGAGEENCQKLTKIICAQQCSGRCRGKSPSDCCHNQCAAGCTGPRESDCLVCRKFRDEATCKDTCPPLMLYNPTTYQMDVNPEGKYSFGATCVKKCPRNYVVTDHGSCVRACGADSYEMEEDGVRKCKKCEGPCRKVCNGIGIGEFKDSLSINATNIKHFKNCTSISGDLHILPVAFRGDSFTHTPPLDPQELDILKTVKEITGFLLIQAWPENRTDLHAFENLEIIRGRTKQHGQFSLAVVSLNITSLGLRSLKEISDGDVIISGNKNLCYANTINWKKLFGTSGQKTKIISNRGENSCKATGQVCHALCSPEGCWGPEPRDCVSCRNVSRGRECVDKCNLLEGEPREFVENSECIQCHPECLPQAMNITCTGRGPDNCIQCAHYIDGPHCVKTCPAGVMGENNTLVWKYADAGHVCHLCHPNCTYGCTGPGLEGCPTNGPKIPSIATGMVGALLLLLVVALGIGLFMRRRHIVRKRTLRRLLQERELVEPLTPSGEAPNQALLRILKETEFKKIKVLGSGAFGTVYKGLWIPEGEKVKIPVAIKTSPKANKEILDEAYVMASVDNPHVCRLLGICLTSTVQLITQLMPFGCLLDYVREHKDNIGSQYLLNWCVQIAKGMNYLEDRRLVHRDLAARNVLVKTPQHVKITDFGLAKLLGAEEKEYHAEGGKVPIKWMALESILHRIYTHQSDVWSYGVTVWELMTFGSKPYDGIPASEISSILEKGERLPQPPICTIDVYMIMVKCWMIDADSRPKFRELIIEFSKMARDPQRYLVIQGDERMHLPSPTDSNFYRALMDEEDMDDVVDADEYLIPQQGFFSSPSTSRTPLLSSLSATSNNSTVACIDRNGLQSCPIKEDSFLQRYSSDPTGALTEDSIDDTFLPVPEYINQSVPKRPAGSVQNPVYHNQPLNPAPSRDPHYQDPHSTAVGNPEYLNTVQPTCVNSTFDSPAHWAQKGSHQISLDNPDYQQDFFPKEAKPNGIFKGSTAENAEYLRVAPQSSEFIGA
Outline: as §1

HEKn (EGFR WT) = HEKn (EGFR WT) (Homo sapiens, UniProt P00533); assay: EGFR target modulation in HEKn (EGFR-WT) cell line (phospho-EGFR Y1173 ELISA); type: cell-based; conditions: value outside parentheses
Outline: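 Primary neonatal human keratinocytes (EGFR WT) were exposed to serially diluted compounds for 3 h, then lysed on ice. Phospho-EGFR Y1173 was measured by chemiluminescent sandwich ELISA using anti-EGFR capture.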

HaCaT (EGFR WT) = HaCaT (EGFR WT) (Homo sapiens, UniProt P00533); assay: EGFR target modulation in HaCaT (EGFR-WT) cell line (phospho-EGFR Y1173 ELISA); type: cell-based; conditions: value in parentheses
Description: EGFR Target Modulation in HaCaT (EGFR-WT) Cell Line Tissue Culture. […] The serial diluted compounds were transferred to the plate containing cells by using a 50 nl Pin Head device (Perkin Elmer) and the cells were placed back in the incubator for 3 hours. […] Phospho-EGFR ([…]) ELISA. Solid white high-binding ELISA plates (Greiner #781074) were coated with 5 ug/ml anti-EGFR capture antibody (R&D Systems #AF231) overnight in 50 mM carbonate/bicarbonate pH 9.5 buffer. […] Wash steps were carried out with a Bio-Tek ELx405 SelectTM using 4 cycles of 100 ul TBS-T (20 mM Tris, 137 mM NaCl, 0.05% Tween-20) per well. […] Lysis was allowed to occur for 20 minutes on ice. A 25 ul aliquot was added to each well of the blocked ELISA plate and incubated overnight at 4° C. with gentle shaking. […] After washing, 1:2,000 anti-rabbit-HRP (Cell Signaling #7074) in 0.2% BSA/TBS-T was added and incubated for 1 hour at room temperature. Chemiluminescent detection was carried out with SuperSignal ELISA Pico substrate (ThermoScientific #37069). Signal was read on EnVision plate reader using built-in UltraLUM setting. Data Analysis. Control cells treated with EGF were set to 100% maximum response. […] With these parameters, the IC50's for each compound in each cell line was calculated using non-linear curve fitting analysis.

T1 sequence (P00533 669-1210 T790M/L858R): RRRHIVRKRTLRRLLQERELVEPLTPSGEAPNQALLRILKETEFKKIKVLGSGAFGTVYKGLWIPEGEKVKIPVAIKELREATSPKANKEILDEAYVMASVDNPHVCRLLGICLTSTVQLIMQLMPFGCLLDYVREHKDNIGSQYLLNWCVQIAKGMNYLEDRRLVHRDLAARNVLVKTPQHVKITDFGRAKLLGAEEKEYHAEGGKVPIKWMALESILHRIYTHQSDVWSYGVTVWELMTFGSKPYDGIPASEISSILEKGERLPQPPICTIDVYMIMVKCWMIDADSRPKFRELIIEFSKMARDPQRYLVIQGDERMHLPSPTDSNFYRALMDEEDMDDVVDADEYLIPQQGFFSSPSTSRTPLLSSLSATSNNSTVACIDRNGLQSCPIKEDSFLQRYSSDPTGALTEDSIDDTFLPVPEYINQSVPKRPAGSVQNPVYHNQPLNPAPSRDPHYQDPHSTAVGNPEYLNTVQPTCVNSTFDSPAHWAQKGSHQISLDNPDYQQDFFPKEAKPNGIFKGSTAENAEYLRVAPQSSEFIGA

IC50 (EGFR(L858R/T790M); EGFR (L858R/T790M) with 90 min pre-incubation, read-out: IC50 (μM) Column B): < 0.001 µM
IC50 (EGFR(L858R/T790M); EGFR (L858R/T790M) with no pre-incubation, read-out: IC50 (μM) Column A): 0.002 µM
IC50 (H1975 (EGFR L858/T790M)): 1 nM
IC50 (H3255 (EGFR L858R)): 2 nM
IC50 (HCC827 (Del E746-A750)): 1 nM
IC50 (HEKn (EGFR WT)): 44 nM
IC50 (HaCaT (EGFR WT)): 44 nM
SMILES: CNC/C=C/C(=O)N1CCCC[C@@H](n2c(NC(=O)c3ccnc(C)c3)nc3cccc(Cl)c32)C1 [Example 17-185]
